The target in test [1] is T1, HCV NS5B polymerase 1a-H77 (Hepatitis C virus genotype 1a, UniProt P27958).
T1 construct: six-histidine tag; made in house; host or cells: E. coli
Kind of test: biochemical. Also noted: species or system HCV genotype 1a. The conditions noted are these: enzyme, strain 1a H77; read-out: HCV Polymerase Strain 1a H77 IC50. In a few lines:
(§1)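 Incorporation of [3H]UTP (0.284 μM), alongside 20 μM each CTP and ATP, into RNA copied from a 5 nM 2.1 kb genotype 1b negative-strand template was measured after 3 h at 30° C using purified His-tagged NS5B truncated at residue 570. Product was spermine-precipitated, filtered and scintillation-counted; nonlinear regression gave IC50.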

In test [2] the target is T2, HCV NS5B polymerase 1a-H77-C316Y (Hepatitis C virus genotype 1a, UniProt P27958, C2736Y).
T2 construct: six-histidine tag; made in house; host or cells: E. coli
Nature of the test: biochemical. Also noted: species or system HCV genotype 1a. In a few lines:
as §1

For test [3], the system named is HCV NS5B polymerase 1a-H77-C316Y. Nature of the test: biochemical. Also noted: species or system HCV genotype 1a. The following applies: ratio of enzyme IC50s, 1a H77-C316Y / 1a H77. In a few lines:
as §1

Test [4] deals with T3, HCV NS5B polymerase 1b BK strain (Hepatitis C virus genotype 1b, UniProt P26663).
T3 construct: six-histidine tag; made in house; host or cells: E. coli
Kind of test: HCV NS5B polymerase enzymatic inhibition assay, strain 1b BK. The class given is biochemical. The conditions noted are these: enzyme, strain 1b BK; read-out: HCV Polymerase Strain 1b BK IC50. In a few lines: as §1

Test [5] concerns HCV 1a-H77 subgenomic replicon. Kind of test: microbe, parasite or virus in culture. The conditions noted are these: Hepatitis C virus, stable replicon. It is filed as cell-based, HCV genotype 1a. On the technique in general: A replicon is a self-replicating genome or part of one, used to study replication in cells.
Test [6] concerns HCV 1b-BB7 subgenomic replicon. Nature of the test: microbe, parasite or virus in culture. The following applies: Hepatitis C virus, stable replicon. It is filed as cell-based, HCV genotype 1b.
The test system of test [7] is chimeric replicon with 2a-J6CF-derived NS5B. Kind of test: microbe, parasite or virus in culture. It is filed as cell-based, HCV genotype 2a. The conditions noted are these: Hepatitis C virus, read-out: 2a chimera 5% FBS EC50.
In test [8] the test system is chimeric replicon with genotype 2b NS5B. Nature of the test: microbe, parasite or virus in culture. It is filed as cell-based, HCV genotype 2b. The following applies: Hepatitis C virus, read-out: 2b chimera 5% FBS EC50.
Test [9] concerns chimeric replicon with genotype 3a NS5B. Kind of test: microbe, parasite or virus in culture. The conditions noted are these: Hepatitis C virus, read-out: 3a chimera 5% FBS EC50. It is filed as cell-based, HCV genotype 3a.
The test system of test [10] is chimeric replicon with genotype 4a NS5B. Kind of test: microbe, parasite or virus in culture. The class given is cell-based, HCV genotype 4a. The conditions noted are these: Hepatitis C virus, read-out: 4a chimera 5% FBS EC50.
[11] abbreviates: 5% FBS, absence of human plasma, read-out: Stable Replicon 1a H77 5% FBS EC50.
Where [12] appears, read: strain 1a H77, 5% FBS + 40% human plasma, read-out: 1a H77 5% FBS + 40% Human Plasma EC50.
Setting [13] is: strain 1a H77, 5% FBS, no human plasma, read-out: 1a H77 5% FBS EC50.
Setting [14] is: strain 1a H77, 5% FBS, read-out: 1a H77 5% FBS EC50.
Setting [15] is: strain 1b BB7, 5% FBS + 40% human plasma, read-out: 1b BB7 5% FBS + 40% Human Plasma EC50.
Where [16] appears, read: strain 1b BB7, 5% FBS, no human plasma, read-out: 1b BB7 5% FBS EC50.
Where [17] appears, read: strain 1b BB7, 5% FBS, read-out: 1b BB7 5% FBS EC50.

Read-outs that look alike come from different tables or passages of the source.

As usually defined, the IC50 is the point on the concentration scale where inhibition reaches its midpoint. The EC50 is the concentration needed to bring the measured effect to its halfway point.

T3 sequence (P26663 2420-2989): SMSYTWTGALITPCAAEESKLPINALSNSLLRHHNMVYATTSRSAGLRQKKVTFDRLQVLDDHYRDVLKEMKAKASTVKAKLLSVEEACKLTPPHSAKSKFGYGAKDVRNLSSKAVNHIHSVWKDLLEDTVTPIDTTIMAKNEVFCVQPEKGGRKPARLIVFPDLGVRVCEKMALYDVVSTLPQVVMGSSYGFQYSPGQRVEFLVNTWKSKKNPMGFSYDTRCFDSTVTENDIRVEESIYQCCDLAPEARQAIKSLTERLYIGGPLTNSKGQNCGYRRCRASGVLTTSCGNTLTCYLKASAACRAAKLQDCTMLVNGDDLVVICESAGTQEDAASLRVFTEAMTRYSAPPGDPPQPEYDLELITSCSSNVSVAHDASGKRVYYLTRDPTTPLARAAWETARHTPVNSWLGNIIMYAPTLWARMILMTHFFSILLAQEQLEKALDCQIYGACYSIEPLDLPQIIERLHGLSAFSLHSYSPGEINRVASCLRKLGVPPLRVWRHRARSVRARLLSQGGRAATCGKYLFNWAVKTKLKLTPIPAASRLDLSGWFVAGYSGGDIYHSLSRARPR
T1 sequence (P27958 2421-2990): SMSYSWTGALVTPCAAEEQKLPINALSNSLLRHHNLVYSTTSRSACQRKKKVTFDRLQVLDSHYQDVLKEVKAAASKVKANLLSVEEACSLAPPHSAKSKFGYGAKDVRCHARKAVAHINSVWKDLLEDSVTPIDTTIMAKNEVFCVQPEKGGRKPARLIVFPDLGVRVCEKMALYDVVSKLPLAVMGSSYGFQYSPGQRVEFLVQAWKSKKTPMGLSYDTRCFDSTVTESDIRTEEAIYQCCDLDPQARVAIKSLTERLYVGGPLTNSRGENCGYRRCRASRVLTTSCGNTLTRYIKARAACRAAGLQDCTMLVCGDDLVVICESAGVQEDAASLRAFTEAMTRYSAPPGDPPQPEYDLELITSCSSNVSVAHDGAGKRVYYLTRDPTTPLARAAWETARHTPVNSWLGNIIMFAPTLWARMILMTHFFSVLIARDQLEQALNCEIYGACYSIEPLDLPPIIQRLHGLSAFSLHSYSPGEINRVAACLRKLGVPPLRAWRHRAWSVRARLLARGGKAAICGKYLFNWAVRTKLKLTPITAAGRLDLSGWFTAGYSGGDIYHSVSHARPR
T2 sequence (P27958 2421-2990 C2736Y): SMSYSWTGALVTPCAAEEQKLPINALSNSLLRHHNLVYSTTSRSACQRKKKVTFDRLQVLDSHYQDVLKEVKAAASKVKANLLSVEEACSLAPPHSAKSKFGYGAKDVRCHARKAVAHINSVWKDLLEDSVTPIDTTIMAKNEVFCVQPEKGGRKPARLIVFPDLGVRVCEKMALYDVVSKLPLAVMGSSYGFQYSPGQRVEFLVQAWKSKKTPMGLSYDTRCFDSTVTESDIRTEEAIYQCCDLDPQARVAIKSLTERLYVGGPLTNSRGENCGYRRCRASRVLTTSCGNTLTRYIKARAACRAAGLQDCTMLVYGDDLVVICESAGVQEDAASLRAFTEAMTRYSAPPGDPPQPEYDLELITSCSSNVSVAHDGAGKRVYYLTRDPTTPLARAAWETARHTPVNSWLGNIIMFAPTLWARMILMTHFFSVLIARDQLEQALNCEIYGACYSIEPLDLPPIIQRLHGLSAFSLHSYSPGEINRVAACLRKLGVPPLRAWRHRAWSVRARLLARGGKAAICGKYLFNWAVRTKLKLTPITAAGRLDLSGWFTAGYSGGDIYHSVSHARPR

Take `CS(=O)(=O)N(CCCS(=O)(=O)N1CCOCC1)c1cc2oc(-c3ccc(F)cc3)c(-c3ncc[nH]3)c2cc1C1CC1` [Example 79, N-[5-cyclopropyl-2-(4-fluorophenyl)-3-(1H-imidazol-2-yl)-1-benzofuran-6-yl]-N-[3-(morpholin-4-ylsulfonyl)propyl]methanesulfonamide]: the results for the IC50 in test [1], in test [2] and in test [4] were 5.5 nM, 141 nM and 20 nM, respectively. The “C316Y/1a Fold Resistance” value in test [3] is 26 fold. Moreover, the EC50 in test [5] (setting [11]) was 14.7 nM; in [5] (setting [12]) it was 117 nM; in [5] (setting [13]), 14.7 nM; in test [5] (setting [14]) it was 14.7 nM; in test [6] (setting [15]), 62 nM; in [6] (setting [16]), 6.9 nM. Also, the EC50 in test [6] (setting [17]) came to 6.9 nM; in test [7], 90.6 nM; in test [8] it was 99.3 nM; in test [9], 11.6 nM; in test [10], 72.8 nM.
In the case of `CCCCCCN(c1cc2oc(-c3ccc(F)cc3)c(-c3ncc[nH]3)c2cc1C1CC1)S(C)(=O)=O` [Example 71, N-[5-cyclopropyl-2-(4-fluorophenyl)-3-(1H-imidazol-2-yl)-1-benzofuran-6-yl]-N-hexylmethanesulfonamide], the values for the 50% inhibitory concentration (IC50) in test [1], in [2] and in [4] were 8.9 nM, 136 nM and 28 nM, respectively. Further, in [3], the “C316Y/1a Fold Resistance” value is 15 fold. Also, the EC50 worked out at 65.4 nM in test [5] (setting [11]); 2290 nM in [5] (setting [12]); 65.4 nM in test [5] (setting [13]); 65.4 nM in test [5] (setting [14]); 1070 nM in test [6] (setting [15]); 39 nM in [6] (setting [16]). For the same compound, the EC50 in [6] (setting [17]) stood at 39 nM; in [7], 409 nM; in [8] it was 377 nM; in test [9] it was 72.5 nM; in [10], 596 nM.
`CS(=O)(=O)N(CCN1CCOCC1)c1cc2oc(-c3ccc(F)cc3)c(-c3ncc[nH]3)c2cc1C1CC1` [Example 58, N-[5-cyclopropyl-2-(4-fluorophenyl)-3-(1H-imidazol-2-yl)-1-benzofuran-6-yl]-N-[2-(morpholin-4-yl)ethyl]methanesulfonamide]: the IC50 in [1] came to 7.3 nM; in test [2], 133 nM; in [4], 29 nM. For the same compound, the “C316Y/1a Fold Resistance” value in [3] is 18 fold. In addition, the concentration for a half-maximal effect (EC50) in [5] (setting [11]) was found to be 21.8 nM; in test [5] (setting [12]), 333 nM; in test [5] (setting [13]) it was 21.8 nM; in test [5] (setting [14]), 21.8 nM; in test [6] (setting [15]), 193 nM; in test [6] (setting [16]), 11.9 nM. Further, the EC50 in test [6] (setting [17]) came to 11.9 nM; in test [7], 78.9 nM; in test [8] it was 130 nM; in test [9], 9.8 nM; in test [10] it was 130 nM.
Turning to `CSCCN(c1cc2oc(-c3ccc(F)cc3)c(-c3ncc[nH]3)c2cc1C1CC1)S(C)(=O)=O` [Example 74, N-[5-cyclopropyl-2-(4-fluorophenyl)-3-(1H-imidazol-2-yl)-1-benzofuran-6-yl]-N-[2-(methylthio)ethyl]methanesulfonamide], the IC50 in [1] turned out to be 3 nM; in test [2], 107 nM; in test [4], 13 nM. Moreover, the “C316Y/1a Fold Resistance” value in test [3] is given as 36 fold. Besides, the EC50 in test [5] (setting [11]) was found to be 13.6 nM; in [5] (setting [12]) it was 254 nM; in [5] (setting [13]) it was 13.6 nM; in [5] (setting [14]) it was 13.6 nM; in test [6] (setting [15]), 127 nM; in test [6] (setting [16]), 6.5 nM. Besides, the EC50 was 6.4 nM in test [6] (setting [17]); 64 nM in [7]; 57.8 nM in test [8]; 4.5 nM in [9]; 86.5 nM in test [10].
In the case of `Cn1cc(-c2ncc(CN(c3ccc4c(-c5ncc[nH]5)c(-c5ccccc5)oc4c3)S(C)(=O)=O)s2)cn1` [Example 26, N-[3-(1H-imidazol-2-yl)-2-phenyl-1-benzofuran-6-yl]-N-{[2-(1-methyl-1H-pyrazol-4-yl)-1,3-thiazol-5-yl]methyl}methanesulfonamide], the IC50 in [1] worked out at 12 nM; in test [2], 30 nM; in test [4] it was 10 nM. Besides, in test [3], the “C316Y/1a Fold Resistance” value was determined as 3 fold. Also, the EC50 in test [5] (setting [11]) came to 343 nM; in [5] (setting [12]), 10000 nM; in test [5] (setting [13]) it was 343 nM; in test [5] (setting [14]) it was 343 nM; in [6] (setting [15]) it was 5450 nM; in test [6] (setting [16]), 15 nM. The EC50 in test [6] (setting [17]) came out at 15 nM; in test [7], 277 nM; in [8] it was 497 nM; in test [9] it was 5.2 nM; in [10], 377 nM.
Turning to `CS(=O)(=O)N(CCCc1nsc(=O)[nH]1)c1cc2oc(-c3ccc(F)cc3)c(C3=NOCCN3)c2cc1C1CC1` [Example 184, N-[5-cyclopropyl-3-(5,6-dihydro-4H-1,2,4-oxadiazin-3-yl)-2-(4-fluorophenyl)-1-benzofuran-6-yl]-N-[3-(5-oxo-4,5-dihydro-1,2,4-thiadiazol-3-yl)propyl]methanesulfonamide], the half-maximal inhibitory concentration (IC50) was found to be 17 nM in [1], 599 nM in [2] and 156 nM in test [4]. Besides, the “C316Y/1a Fold Resistance” value in test [3] was 35 fold. The EC50 was found to be 69.7 nM in [5] (setting [11]); 1870 nM in [5] (setting [12]); 69.7 nM in test [5] (setting [13]); 69.7 nM in test [5] (setting [14]); 1090 nM in test [6] (setting [15]); 28 nM in [6] (setting [16]). Also, the EC50 in test [6] (setting [17]) was found to be 28 nM; in [7], 539 nM; in test [8], 353 nM; in test [9] it was 84 nM; in [10] it was 507 nM.
On to `[2H]C1([2H])NC(c2c(-c3ccc(F)cc3)oc3cc(N(CCCCS(C)(=O)=O)S(C)(=O)=O)c(C4CC4)cc23)=NO1` [Example 150, N-{5-cyclopropyl-3-[(5,5-^2H2)-4,5-dihydro-1,2,4-oxadiazol-3-yl]-2-(4-fluorophenyl)-1-benzofuran-6-yl}-N-[4-(methylsulfonyl)butyl]methanesulfonamide], for which the figures for the IC50 in test [1], in test [2] and in [4] were 4 nM, 42 nM and 5 nM, respectively. In addition, the “C316Y/1a Fold Resistance” value in test [3] was determined as 11 fold. The EC50 in test [5] (setting [11]) worked out at 5 nM; in test [5] (setting [12]), 320 nM; in test [5] (setting [13]), 5 nM; in test [5] (setting [14]), 5 nM; in test [6] (setting [15]), 231 nM; in test [6] (setting [16]) it was 4 nM. In addition, the EC50 in [6] (setting [17]) amounted to 4 nM; in [7], 43 nM; in [8], 30.9 nM; in [9], 7 nM; in [10], 25 nM.
For the compound `CCOP(=O)(CCCN(c1cc2oc(-c3ccc(F)cc3)c(C3=NOCCN3)c2cc1C1CC1)S(C)(=O)=O)OCC` [Example 116, diethyl (3-{[5-cyclopropyl-3-(5,6-dihydro-4H-1,2,4-oxadiazin-3-yl)-2-(4-fluorophenyl)-1-benzofuran-6-yl](methylsulfonyl)amino}propyl)phosphonate], the IC50 turned out to be 7.5 nM in test [1], 63 nM in [2] and 35 nM in test [4]. In test [3], the “C316Y/1a Fold Resistance” value amounted to 8 fold. Besides, the EC50 in test [5] (setting [11]) worked out at 35.9 nM; in test [5] (setting [12]), 157 nM; in test [5] (setting [13]), 35.9 nM; in [5] (setting [14]), 35.9 nM; in test [6] (setting [15]) it was 213 nM; in test [6] (setting [16]), 32 nM. Also, the EC50 amounted to 32 nM in test [6] (setting [17]); 535 nM in [7]; 396 nM in test [8]; 84 nM in test [9]; 247 nM in test [10].

(Values after patent US20160355530A1, “HEPATITIS C INHIBITORS AND USES THEREOF” (AbbVie Inc., priority 2010, published 2016).)
